# Structures can show the parent of a compound that is named as a salt. Bridge positions count the residues as written; N and C are the ends. Ends that are not written are not given here.
# Legend:
# [1] = tested on: Nicotinic receptor (Human); assay: [3H]-; format: binding; conditions: Human receptor (Non-recombinant)
# [2] = tested on: Ca channel (Type L, Phenylalkylamine); assay: [3H]-; format: binding; conditions: Rat cerebral cortex
# [3] = tested on: Ca channel (Type L, Benzothiazepine); assay: [3H]-; format: binding; conditions: Rat cerebral cortex
# PAF receptor = assay: 1-O-Hexadecyl-[3H]-Platelet Activating Factor; format: binding; conditions: Rabbit platelet
# [4] = molecular target: Adenosine A1 receptor (Human) (Homo sapiens, UniProt P30542); assay: [3H]8-Cyclopentyl-1,3-dipropylxanthine; format: binding; conditions: Human recombinant
# [5] = molecular target: Dopamine D2 receptor short isoform (Human) (Homo sapiens, UniProt P14416); assay: [3H]-Spiperone binding assay; conditions: Human recombinant
# [6] = tested on: Glutamate receptor (AMPA); assay: D,L-alpha-[3H]-Amino-3-Hydroxy-Methylisoxazole-4-Propionic Acid; format: binding; conditions: Rat cerebral cortex
# IP3 receptor = assay: D-[3H]-Inositol-1,4,5-Triphosphate binding assay; conditions: Rat cerebellum
# [7] = molecular target: Glucocorticoid receptor (Human) (Homo sapiens, UniProt P04150); assay: [3H]-Dexamethasone binding assay; conditions: Human recombinant
# [8] = tested on: GABA A receptor (Benzodiazepine site); assay: [3H]-Flunitrazepam binding assay; conditions: Rat whole brain
# [9] = molecular target: Dopamine transporter (Human) (Homo sapiens, UniProt Q01959); assay: [3H]-WIN35,428 binding assay; conditions: Human recombinant
# K Channel KATP = assay: [3H]-Glybenclamide binding assay; conditions: Rat whole brain
# [10] = tested on: Imidazoline receptor (Central); assay: [3H]RX 781094; format: binding; conditions: Rat cerebral cortex
# [11] = molecular target: Adenosine A3 receptor (Human) (Homo sapiens, UniProt P0DMS8); assay: [125I]-AB-MECA binding assay; conditions: Human recombinant
# [12] = tested on: Glutamate (NMDA polyamine site); assay: [3H]-Ifenprodil binding assay; conditions: Rat cerebral cortex
# [13] = molecular target: Serotonin transporter (Human) (Homo sapiens, UniProt P31645); assay: [3H]-Imipramine hydrochloride binding assay; conditions: Human recombinant
# [14] = tested on: Glutamate receptor (Kainate); assay: [3H]-Kainic Acid binding assay; conditions: Rat whole brain
# Monoamine transporter = assay: [3H]-α-Dihydrotetrabenazine binding assay; conditions: Rabbit platelet
# [15] = molecular target: Neurokinin NK1 receptor (Human) (Homo sapiens, UniProt P25103); assay: [125I]-Substance P binding assay; conditions: Human recombinant
# [16] = tested on: Glutamate receptor (NMDA agonist site); assay: [3H]-CGP-39653 binding assay; conditions: Rat cerebral cortex
# Leukotriene B4 receptor = assay: [3H]-Leukotriene B4 binding assay; conditions: Guinea pig lung
# Leukotriene D4 receptor = Leukotriene D4 receptor (Cavia porcellus, UniProt Q2NNR5); assay: [3H]-Leukotriene D4 binding assay; conditions: Guinea pig lung
# [17] = molecular target: Glutamate receptor (NMDAglycine site) (Rattus norvegicus, UniProt P35439); assay: [3H]-MDL105,519 binding assay; conditions: Rat cerebral cortex
# [18] = tested on: GABA A receptor (Agonist site); assay: [3H]-Muscimol binding assay; conditions: Rat cerebellum
# [19] = molecular target: Opiate δ receptor (Human) (Homo sapiens, UniProt P41143); assay: [3H]-Naltrindole binding assay; conditions: Human recombinant
# [20] = tested on: Ca Channel (Type L, Dihydropyridine); assay: [3H]-PN200-110 binding assay; conditions: Rat cerebral cortex
# α1A-Adrenergic receptor = α1A-Adrenergic receptor (Rattus norvegicus, UniProt P43140); assay: [3H]-Prazosin binding assay; conditions: Rat submandibular gland
# α1B-Adrenergic receptor = α1B-Adrenergic receptor (Rattus norvegicus, UniProt P15823); assay: [3H]-Prazosin binding assay; conditions: Rat liver
# [21] = molecular target: Prostanoid EP2 receptor (Human) (Homo sapiens, UniProt P43116); assay: [3H]-Prostaglandin E2 binding assay; conditions: Human recombinant
# [22] = tested on: Glycine receptor (Strychnine sensitive); format: binding; conditions: Rat spinal cord
# [23] = molecular target: GABA A receptor (Picrotoxin site); assay: [3H]-EBOB binding assay; set-up: species or system Rat
# [24] = tested on: Glutamate receptor (NMDA phencycidine site); assay: [3H]-; format: binding; conditions: Rat cerebral cortex
# K Channel SkCa = assay: [125I]-Apamin binding assay; conditions: Rat whole brain
# [25] = tested on: Bombesin receptor (Non-selective); assay: [125I]-Bombesin binding assay; conditions: Rat whole brain
# [26] = molecular target: Neurokinin NK3 receptor (Human) (Homo sapiens, UniProt P29371); assay: [125I]-Neurokinin B; format: binding; conditions: Human recombinant
# CRF1 receptor (Human) = molecular target: T1, CRF1 receptor (Human) (Homo sapiens, UniProt P34998); assay: [125I]-Corticotropin Releasing Factor; format: binding; conditions: Human recombinant
# T1 sequence (P34998 24-415): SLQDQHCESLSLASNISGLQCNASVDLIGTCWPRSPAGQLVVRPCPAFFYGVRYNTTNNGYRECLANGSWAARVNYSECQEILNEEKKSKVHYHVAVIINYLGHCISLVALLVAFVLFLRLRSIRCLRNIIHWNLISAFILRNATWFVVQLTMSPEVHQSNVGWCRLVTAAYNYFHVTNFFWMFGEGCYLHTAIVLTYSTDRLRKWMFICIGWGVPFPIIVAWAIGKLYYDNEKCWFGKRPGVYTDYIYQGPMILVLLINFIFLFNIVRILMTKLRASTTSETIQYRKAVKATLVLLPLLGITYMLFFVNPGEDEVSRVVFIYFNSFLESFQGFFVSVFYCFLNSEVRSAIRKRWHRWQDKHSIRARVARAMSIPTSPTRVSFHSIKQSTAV
# Sequence of Glucocorticoid receptor (Human) (P04150 whole entry): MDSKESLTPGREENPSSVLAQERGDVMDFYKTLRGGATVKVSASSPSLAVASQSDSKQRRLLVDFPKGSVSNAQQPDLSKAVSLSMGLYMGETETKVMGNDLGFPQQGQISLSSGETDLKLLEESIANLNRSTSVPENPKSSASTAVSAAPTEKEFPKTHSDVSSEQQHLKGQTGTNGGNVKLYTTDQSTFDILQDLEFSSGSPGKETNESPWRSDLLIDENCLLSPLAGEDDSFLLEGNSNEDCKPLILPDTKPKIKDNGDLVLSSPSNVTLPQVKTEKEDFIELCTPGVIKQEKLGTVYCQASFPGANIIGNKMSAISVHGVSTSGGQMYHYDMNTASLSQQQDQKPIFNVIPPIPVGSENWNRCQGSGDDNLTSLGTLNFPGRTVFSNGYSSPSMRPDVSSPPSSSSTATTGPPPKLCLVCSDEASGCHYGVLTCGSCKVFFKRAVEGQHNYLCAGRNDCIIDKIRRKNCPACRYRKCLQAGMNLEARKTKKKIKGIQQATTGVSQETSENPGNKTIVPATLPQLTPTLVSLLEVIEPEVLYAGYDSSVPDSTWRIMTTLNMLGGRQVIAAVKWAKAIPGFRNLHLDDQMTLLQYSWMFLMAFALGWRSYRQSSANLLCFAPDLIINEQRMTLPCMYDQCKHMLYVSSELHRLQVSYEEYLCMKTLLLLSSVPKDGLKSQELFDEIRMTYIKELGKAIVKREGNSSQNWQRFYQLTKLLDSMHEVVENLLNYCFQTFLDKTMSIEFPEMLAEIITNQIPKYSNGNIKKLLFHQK
# Sequence of Glutamate receptor (NMDAglycine site) (P35439 394-800 limits assumed): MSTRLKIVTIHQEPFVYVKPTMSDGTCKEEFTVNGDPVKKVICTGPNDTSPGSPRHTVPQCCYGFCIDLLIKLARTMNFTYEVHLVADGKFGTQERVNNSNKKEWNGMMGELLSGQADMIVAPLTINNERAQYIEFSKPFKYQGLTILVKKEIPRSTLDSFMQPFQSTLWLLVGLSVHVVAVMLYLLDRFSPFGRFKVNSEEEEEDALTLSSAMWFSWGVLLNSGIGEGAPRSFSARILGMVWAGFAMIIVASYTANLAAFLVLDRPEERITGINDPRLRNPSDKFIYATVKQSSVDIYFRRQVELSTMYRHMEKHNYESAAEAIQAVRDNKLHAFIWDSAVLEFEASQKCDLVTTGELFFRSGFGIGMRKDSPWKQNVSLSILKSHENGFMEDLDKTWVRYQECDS
# Sequence of Prostanoid EP2 receptor (Human) (P43116 whole entry): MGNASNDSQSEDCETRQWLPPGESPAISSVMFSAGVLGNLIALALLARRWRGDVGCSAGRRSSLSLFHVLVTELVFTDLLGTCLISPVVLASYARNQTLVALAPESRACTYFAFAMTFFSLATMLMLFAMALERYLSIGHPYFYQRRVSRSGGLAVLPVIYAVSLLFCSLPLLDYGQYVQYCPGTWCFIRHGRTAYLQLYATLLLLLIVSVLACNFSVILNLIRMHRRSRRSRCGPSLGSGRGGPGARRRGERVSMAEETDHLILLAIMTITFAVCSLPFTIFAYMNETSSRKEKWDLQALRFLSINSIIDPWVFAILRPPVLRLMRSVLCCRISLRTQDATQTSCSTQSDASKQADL
# Sequence of Adenosine A1 receptor (Human) (P30542 whole entry, canonical isoform): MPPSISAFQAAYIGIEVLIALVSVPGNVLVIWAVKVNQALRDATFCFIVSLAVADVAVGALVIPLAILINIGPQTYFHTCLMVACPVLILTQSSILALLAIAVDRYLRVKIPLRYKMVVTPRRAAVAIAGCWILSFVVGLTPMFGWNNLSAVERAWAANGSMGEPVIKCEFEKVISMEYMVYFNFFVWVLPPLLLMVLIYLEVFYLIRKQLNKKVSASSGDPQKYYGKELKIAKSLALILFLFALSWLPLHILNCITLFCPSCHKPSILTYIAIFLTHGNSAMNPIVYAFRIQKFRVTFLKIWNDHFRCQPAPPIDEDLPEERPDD
# Sequence of Serotonin transporter (Human) (P31645 whole entry): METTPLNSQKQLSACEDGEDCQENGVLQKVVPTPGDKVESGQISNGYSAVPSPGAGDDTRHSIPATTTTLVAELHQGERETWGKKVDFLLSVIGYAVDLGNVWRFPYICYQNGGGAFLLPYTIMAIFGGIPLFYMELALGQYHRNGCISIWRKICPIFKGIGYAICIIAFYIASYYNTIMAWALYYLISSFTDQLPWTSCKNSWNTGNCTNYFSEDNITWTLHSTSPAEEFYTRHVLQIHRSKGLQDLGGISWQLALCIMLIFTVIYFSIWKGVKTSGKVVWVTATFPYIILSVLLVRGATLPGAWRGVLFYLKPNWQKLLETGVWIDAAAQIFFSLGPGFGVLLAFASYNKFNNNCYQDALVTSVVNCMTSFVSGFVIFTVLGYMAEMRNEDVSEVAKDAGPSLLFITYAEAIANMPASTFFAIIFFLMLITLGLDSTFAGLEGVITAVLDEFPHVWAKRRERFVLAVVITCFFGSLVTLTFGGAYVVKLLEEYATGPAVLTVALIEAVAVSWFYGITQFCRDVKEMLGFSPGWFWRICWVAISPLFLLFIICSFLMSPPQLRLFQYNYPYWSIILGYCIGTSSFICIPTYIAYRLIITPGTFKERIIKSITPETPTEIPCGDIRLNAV
# Sequence of α1A-Adrenergic receptor (P43140 whole entry): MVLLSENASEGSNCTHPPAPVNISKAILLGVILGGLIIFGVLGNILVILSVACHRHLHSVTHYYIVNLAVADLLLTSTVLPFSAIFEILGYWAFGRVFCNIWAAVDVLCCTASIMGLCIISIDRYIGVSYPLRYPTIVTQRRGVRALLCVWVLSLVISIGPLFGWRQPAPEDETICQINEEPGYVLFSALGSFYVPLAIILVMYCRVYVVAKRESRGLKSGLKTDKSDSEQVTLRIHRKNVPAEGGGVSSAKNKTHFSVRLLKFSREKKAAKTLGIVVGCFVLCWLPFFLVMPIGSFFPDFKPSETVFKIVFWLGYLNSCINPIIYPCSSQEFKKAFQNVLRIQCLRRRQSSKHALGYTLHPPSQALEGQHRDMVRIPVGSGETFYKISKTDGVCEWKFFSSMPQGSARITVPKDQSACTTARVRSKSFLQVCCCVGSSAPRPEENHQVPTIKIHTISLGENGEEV
# Sequence of Neurokinin NK3 receptor (Human) (P29371 whole entry): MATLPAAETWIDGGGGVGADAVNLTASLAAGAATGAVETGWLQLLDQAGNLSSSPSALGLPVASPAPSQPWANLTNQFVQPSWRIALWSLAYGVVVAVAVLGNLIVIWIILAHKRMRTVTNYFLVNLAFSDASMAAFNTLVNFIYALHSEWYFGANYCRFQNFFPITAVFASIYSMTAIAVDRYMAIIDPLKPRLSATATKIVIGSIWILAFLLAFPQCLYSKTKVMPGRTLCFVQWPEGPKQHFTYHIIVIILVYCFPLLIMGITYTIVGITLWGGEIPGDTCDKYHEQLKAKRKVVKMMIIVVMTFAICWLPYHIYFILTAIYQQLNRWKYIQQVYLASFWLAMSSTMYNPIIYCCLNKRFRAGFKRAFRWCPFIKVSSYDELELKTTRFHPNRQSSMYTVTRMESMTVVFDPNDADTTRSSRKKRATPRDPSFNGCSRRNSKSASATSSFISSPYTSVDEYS
# Sequence of Neurokinin NK1 receptor (Human) (P25103 whole entry): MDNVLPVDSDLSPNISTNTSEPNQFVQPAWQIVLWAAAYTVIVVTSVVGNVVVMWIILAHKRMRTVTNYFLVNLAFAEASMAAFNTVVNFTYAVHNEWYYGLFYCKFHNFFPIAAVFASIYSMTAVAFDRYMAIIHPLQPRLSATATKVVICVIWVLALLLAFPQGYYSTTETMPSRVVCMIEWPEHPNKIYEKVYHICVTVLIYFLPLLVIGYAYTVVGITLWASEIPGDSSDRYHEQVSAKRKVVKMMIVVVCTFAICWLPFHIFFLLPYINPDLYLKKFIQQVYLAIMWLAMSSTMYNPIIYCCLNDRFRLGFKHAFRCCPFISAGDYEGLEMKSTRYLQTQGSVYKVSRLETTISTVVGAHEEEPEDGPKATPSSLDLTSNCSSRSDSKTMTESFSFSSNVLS
# Sequence of Opiate δ receptor (Human) (P41143 whole entry): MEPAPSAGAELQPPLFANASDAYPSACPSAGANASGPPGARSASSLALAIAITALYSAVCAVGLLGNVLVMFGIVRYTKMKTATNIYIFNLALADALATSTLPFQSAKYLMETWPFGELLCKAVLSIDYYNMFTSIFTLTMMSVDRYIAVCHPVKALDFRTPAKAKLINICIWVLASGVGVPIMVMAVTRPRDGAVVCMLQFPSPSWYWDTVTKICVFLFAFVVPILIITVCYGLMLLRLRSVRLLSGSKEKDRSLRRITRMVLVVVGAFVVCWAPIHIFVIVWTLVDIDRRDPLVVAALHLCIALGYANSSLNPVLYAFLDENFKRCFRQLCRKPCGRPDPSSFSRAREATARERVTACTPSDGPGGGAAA
# Sequence of Adenosine A3 receptor (Human) (P0DMS8 whole entry): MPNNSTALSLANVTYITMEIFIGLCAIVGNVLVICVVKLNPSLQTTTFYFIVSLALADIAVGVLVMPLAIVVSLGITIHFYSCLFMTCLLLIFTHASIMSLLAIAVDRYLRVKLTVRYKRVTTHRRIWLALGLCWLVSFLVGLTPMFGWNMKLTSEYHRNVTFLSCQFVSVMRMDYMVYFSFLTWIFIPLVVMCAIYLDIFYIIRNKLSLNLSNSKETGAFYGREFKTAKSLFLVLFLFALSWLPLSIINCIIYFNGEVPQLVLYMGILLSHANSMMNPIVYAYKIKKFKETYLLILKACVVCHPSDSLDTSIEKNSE
# Sequence of Leukotriene D4 receptor (Q2NNR5 whole entry): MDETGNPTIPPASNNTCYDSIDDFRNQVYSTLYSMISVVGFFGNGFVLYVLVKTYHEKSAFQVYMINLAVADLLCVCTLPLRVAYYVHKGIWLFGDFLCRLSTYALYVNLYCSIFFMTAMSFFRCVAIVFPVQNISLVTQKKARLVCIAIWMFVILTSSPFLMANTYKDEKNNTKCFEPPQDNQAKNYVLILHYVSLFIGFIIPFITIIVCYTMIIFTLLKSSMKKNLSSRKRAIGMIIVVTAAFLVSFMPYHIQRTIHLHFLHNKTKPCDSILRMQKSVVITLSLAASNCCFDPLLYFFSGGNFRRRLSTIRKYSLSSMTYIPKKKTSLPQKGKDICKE
compound,measurement,setting,value
Cl.Cl.Clc1ccc(C2CC3CCC2N3)cn1.O (racemic) [(±)-Epibatidine dihydrochloride hydrate],Inhibition by a positive substance (%),[1],100%
COc1ccc(CCN(C)CCCC(C#N)(c2cc(OC)c(OC)c(OC)c2)C(C)C)cc1OC.Cl (racemic) [(±)-Methoxyverapamil hydrochloride],Inhibition by a positive control substance (%),[2],100%
COc1ccc([C@@H]2Sc3ccccc3N(CCN(C)C)C(=O)[C@@H]2OC(C)=O)cc1.Cl (relative stereo) [(+)-cis-Diltiazem hydrochloride],Inhibition by a positive substance (%),[3],96.98%
CCCCCCCCCCCCCCCCOC[C@@H](O)COP(=O)([O-])OCC[N+](C)(C)C [1-O-Palmityl-sn-glycero-3-phosphocholine],Inhibition by a positive substance (%),PAF receptor,100%
"CCCn1c(=O)c2[nH]c(C3CCCC3)nc2n(CCC)c1=O [8-Cyclopentyl-1,3-dipropylxanthine]",Inhibition by a positive substance (%),[4],96.61%
CC(C)(C)[C@]1(O)CCN2C[C@H]3c4ccccc4CCc4cccc(c43)[C@@H]2C1 [(+)-Butaclamol hydrochloride],Inhibition by a positive substance (%),[5],94.16%
Cc1o[nH]c(=O)c1C[C@H](N)C(=O)O [(S)-AMPA],Inhibition by a positive substance (%),[6],100%
"O=P([O-])([O-])OC1C(O)C(O)C(OP(=O)([O-])[O-])C(OP(=O)([O-])[O-])C1O.[K+].[K+].[K+].[K+].[K+].[K+] [D-myo-Inositol 1,4,5-trisphosphate potassium salt]",Inhibition by a positive substance (%),IP3 receptor,100%
C[C@@H]1C[C@H]2[C@@H]3CCC4=CC(=O)C=C[C@]4(C)[C@@]3(F)[C@@H](O)C[C@]2(C)[C@@]1(O)C(=O)CO [Dexamethasone],Inhibition by a positive substance (%),[7],99.36%
CN1C(=O)CN=C(c2ccccc2)c2cc(Cl)ccc21 [Diazepam],Inhibition by a positive substance (%),[8],100%
Fc1ccc(C(OCCN2CCN(CCCc3ccccc3)CC2)c2ccc(F)cc2)cc1 [GBR12909 dihydrochloride],Inhibition by a positive control substance (%),[9],99.41%
COc1ccc(Cl)cc1C(=O)NCCc1ccc(S(=O)(=O)NC(=O)NC2CCCCC2)cc1 [Glibenclamide],Inhibition by a positive substance (%),K Channel KATP,100%
CC(=O)O.N=C(N)N/N=C/c1c(Cl)cccc1Cl [Guanabenz acetate salt],Inhibition by a positive substance (%),[10],100%
CNC(=O)[C@H]1O[C@@H](n2cnc3c(NCc4cccc(I)c4)ncnc32)[C@H](O)[C@@H]1O [IB-MECA],Inhibition by a positive substance (%),[11],99.41%
CC(C(O)c1ccc(O)cc1)N1CCC(Cc2ccccc2)CC1.CC(C(O)c1ccc(O)cc1)N1CCC(Cc2ccccc2)CC1.O=C(O)C(O)C(O)C(=O)O (stereo not drawn) [Ifenprodil tartrate salt],Inhibition by a positive substance (%),[12],99.68%
CN(C)CCCN1c2ccccc2CCc2ccccc21 [Imipramine hydrochloride],Inhibition by a positive substance (%),[13],96.87%
C=C(C)[C@H]1CN[C@H](C(=O)O)[C@H]1CC(=O)O.O [Kainic acid monohydrate],Inhibition by a positive substance (%),[14],100%
O=C(O)C(O)C(O)C(=O)O.O=C(c1ccc(F)cc1)C1CCN(CCn2c(=O)[nH]c3ccccc3c2=O)CC1 [Ketanserin tartrate salt],Inhibition by a positive substance (%),Monoamine transporter,100%
"Ic1ccccc1CN[C@@H]1C2CCN(CC2)[C@@H]1C(c1ccccc1)c1ccccc1 [L-703,606 oxalate salt hydrate]",Inhibition by a positive substance (%),[15],99.87%
Cl.N[C@@H](CCC(=O)O)C(=O)O [L-Glutamic acid hydrochloride],Inhibition by a positive substance (%),[16],100%
CCCCC/C=C\C[C@@H](O)/C=C/C=C/C=C\[C@@H](O)CCCC(=O)O [Leukotriene B4],Inhibition by a positive control substance (%),Leukotriene B4 receptor,92.71%
CCCCC/C=C\C\C=C/C=C/C=C/[C@@H](SC[C@H](N)C(=O)NCC(=O)O)[C@@H](O)CCCC(=O)O [Leukotriene D4],Inhibition by a positive substance (%),Leukotriene D4 receptor,96.63%
"O=C(O)/C(=C/c1c(C(=O)O)[nH]c2cc(Cl)cc(Cl)c12)c1ccccc1 [MDL105,519]",Inhibition by a positive substance (%),[17],100%
NCc1cc(=O)[nH]o1 [Muscimol],Inhibition by a positive substance (%),[18],99.04%
CS(=O)(=O)O.Oc1ccc2c3c1O[C@H]1c4oc5ccccc5c4C[C@@]4(O)[C@@H](C2)N(CC2CC2)CC[C@]314 [Naltriben methanesulfonate hydrate],Inhibition by a positive substance (%),[19],100%
CCOC(=O)C1=C(C)NC(C)=C(C(=O)OC)C1c1cccc([N+](=O)[O-])c1 (stereo not drawn) [Nitrendipine],Inhibition by a positive substance (%),[20],100%
COc1cc2nc(N3CCN(C(=O)c4ccco4)CC3)nc(N)c2cc1OC [Prazosin hydrochloride],Inhibition by a positive substance (%),α1A-Adrenergic receptor,100%
same,Inhibition by a positive substance (%),α1B-Adrenergic receptor,100%
CCCCC[C@H](O)/C=C/[C@H]1[C@H](O)CC(=O)[C@@H]1C/C=C\CCCC(=O)O [Prostaglandin E2],Inhibition by a positive substance (%),[21],100%
O=C1C[C@@H]2OCC=C3CN4CC[C@]56c7ccccc7N1[C@H]5[C@H]2[C@H]3C[C@H]46 [Strychnine],Inhibition by a positive substance (%),[22],98.79%
"C#Cc1ccc(C23OCC(CCC)(CO2)CO3)cc1 [[^3H]-EBOB, [^3H]-ethynylbicycloorthobenzoate]",Kd,"[23]; read-out: Kd (nmol/L), binding of the radio-labeled ligand, 7 concentrations, GABAA (Picrotoxin site)",4.18 nmol/L
(+)-MK-801 hydrogen maleate,Inhibition by a positive substance (%),[24],100%
"Apamin (CNCKAPETALCARRCQQH-NH2; disulfide 1-11, 3-15; ends not checked; UniProt P01500 28-45, looked up)",Inhibition by a positive substance (%),K Channel SkCa,100%
Bombesin acetate hydrate,Inhibition by a positive control substance (%),[25],98.81%
Picrotoxin,Inhibition by a positive control substance (%),[23]; Rat cerebral cortex,94.33%
same,IC50,"[23]; read-out: IC50 for inhibition of the [3H]-EBOB binding, rat cerebral cortex preparation, 7 concentrations, duplicate",602 nM
same,Ki,"[23]; read-out: Ki (mol/L), inhibition of the binding of [3H]-EBOB, GABAA (Picrotoxin site), Ki=IC50/(1+[L/Kd])",313 nM
"Succinyl-[Asp 6, N–Me-Phe 8]-Substance P Fragment 6–11",Inhibition by a positive substance (%),[26],100%
"Urocortin human (DNPSLSIDLTFHLLRTLLELARTQSQRERAEQNRIIFDSV; ends and bridges not checked; UniProt P55089 83-122, looked up)",Inhibition by a positive substance (%),CRF1 receptor (Human),100%

# — paper PMC8237303 (Heliyon, 2021)
